Where “and” joins values, the source holds several entries; their conditions need not be identical. Equal values may be shown once.
System: 832693-133-R-J1-PDC multi-cell spheroids, viability
Assay: Anticancer human tumor 832693-133-R-J1-PDC patient-derived head and neck squamous carcinoma cell line growth inhibition [IpAb]
Conditions: for viability, T/C: stronger effect = lower value
Procedure, shortened: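 Combinations with ipatasertib or abemaciclib were tested on tumour spheroids holding HUVEC (25%) and MSC (15%) alongside 60% malignant cells. Top concentration was at or near clinical Cmax (10 microM if undefined), descending in half-log steps.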
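Also: spheroids exposed to the drugs for one week before the viability readout.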
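For viability, T/C in this document: 100% = DMSO vehicle control wells.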

In the case of `CC(C)n1nc(-c2ccc3oc(N)nc3c2)c2c(N)ncnc21`, the viability, T/C (compound 0.000316 µM) is reported as 94.6% and 91.2%, the viability, T/C (compound 0.001 µM) is reported as 89.4% and 88.7% and the viability, T/C (compound 0.00316 µM) is reported as 86.9% and 76%. For the same compound, the viability, T/C (compound 0.01 µM) was 76.9% and 68.7%, the viability, T/C (compound 0.0316 µM) was 67.5% and 60.2% and the viability, T/C (compound 0.1 µM) was 61.8% and 52.7%. It also gave an IC50 (curve of compound) greater than 100 nM.

For `Cn1ncnc1[C@H]1c2n[nH]c(=O)c3cc(F)cc(c23)N[C@@H]1c1ccc(F)cc1`, the viability, T/C (compound 0.000316 µM) was 110% and 111%, the viability, T/C (compound 0.001 µM) was 97.9% and 109% and the viability, T/C (compound 0.00316 µM) was 98.3% and 96.9%. For the same compound, the viability, T/C (compound 0.01 µM) was 86.5% and 107%, the viability, T/C (compound 0.0316 µM) was 95.6% and 93.8% and the viability, T/C (compound 0.1 µM) was 86.1% and 84.1%. It also gave an IC50 (curve of compound) greater than 100 nM.

For `CC(C)(C)c1cnc(CSc2cnc(NC(=O)C3CCNCC3)s2)o1`, the viability, T/C (compound 0.00949 µM) was 115% and 100%, the viability, T/C (compound 0.03 µM) was 127% and the viability, T/C (compound 0.0949 µM) was 143% and 156%. The viability, T/C (compound 0.3 µM) was 111% and 164%, the viability, T/C (compound 0.949 µM) was 1.31% and 0.89% and the viability, T/C (compound 3 µM) was 1.26% and 1.3%. The IC50 (curve of compound) was 570 nM and 626 nM.

Compound `CC(=O)c1c(C)c2cnc(Nc3ccc(N4CCNCC4)cn3)nc2n(C2CCCC2)c1=O` + CCN1CCN(Cc2ccc(Nc3ncc(F)c(-c4cc(F)c5nc(C)n(C(C)C)c5c4)n3)nc2)CC1 has an IC50 (curve of first compound, second compound 0.01 µM) greater than 300 nM, an IC50 (curve of first compound, second compound 0.0316 µM) greater than 300 nM and an IC50 (curve of first compound, second compound 0.1 µM) greater than 300 nM. The IC50 (curve of first compound, second compound 0.316 µM) was greater than 300 nM, the IC50 (curve of first compound, second compound 1 µM) was greater than 300 nM and the viability, T/C (second compound 0.01 µM, first compound 0.000949 µM) was 101%. For the same compound, the viability, T/C (second compound 0.01 µM, first compound 0.003 µM) was 83.8%, the viability, T/C (second compound 0.01 µM, first compound 0.00949 µM) was 75.6% and the viability, T/C (second compound 0.01 µM, first compound 0.03 µM) was 71.8%. It also gave a viability, T/C (second compound 0.01 µM, first compound 0.0949 µM) of 58.4%, a viability, T/C (second compound 0.01 µM, first compound 0.3 µM) of 60% and a viability, T/C (second compound 0.0316 µM, first compound 0.000949 µM) of 80.1%. The viability, T/C (second compound 0.0316 µM, first compound 0.003 µM) was 83.4%, the viability, T/C (second compound 0.0316 µM, first compound 0.00949 µM) was 71.1% and the viability, T/C (second compound 0.0316 µM, first compound 0.03 µM) was 58.4%. It also gave a viability, T/C (second compound 0.0316 µM, first compound 0.0949 µM) of 56.7%, a viability, T/C (second compound 0.0316 µM, first compound 0.3 µM) of 54.1% and a viability, T/C (second compound 0.1 µM, first compound 0.000949 µM) of 57.1%. It also gave a viability, T/C (second compound 0.1 µM, first compound 0.003 µM) of 62.2%, a viability, T/C (second compound 0.1 µM, first compound 0.00949 µM) of 61.4% and a viability, T/C (second compound 0.1 µM, first compound 0.03 µM) of 52.4%. For the same compound, the viability, T/C (second compound 0.1 µM, first compound 0.0949 µM) was 54.3%, the viability, T/C (second compound 0.1 µM, first compound 0.3 µM) was 56% and the viability, T/C (second compound 0.316 µM, first compound 0.000949 µM) was 54%. The viability, T/C (second compound 0.316 µM, first compound 0.003 µM) was 53.3%, the viability, T/C (second compound 0.316 µM, first compound 0.00949 µM) was 55.3% and the viability, T/C (second compound 0.316 µM, first compound 0.03 µM) was 61.4%. For the same compound, the viability, T/C (second compound 0.316 µM, first compound 0.0949 µM) was 55.2%, the viability, T/C (second compound 0.316 µM, first compound 0.3 µM) was 60.4% and the viability, T/C (second compound 1 µM, first compound 0.000949 µM) was 67.8%. It also gave a viability, T/C (second compound 1 µM, first compound 0.003 µM) of 61%, a viability, T/C (second compound 1 µM, first compound 0.00949 µM) of 68.3% and a viability, T/C (second compound 1 µM, first compound 0.03 µM) of 64.8%. For the same compound, the viability, T/C (second compound 1 µM, first compound 0.0949 µM) was 65.6% and the viability, T/C (second compound 1 µM, first compound 0.3 µM) was 57.2%.

From PubChem BioAssay AID2060337 (Molecular Pharmacology Branch, DTP, NCI, 2025)
